Values of other authors in patent US20040235766A1 (priority 2001, published 2004).
pKd: −log10 of the molar value.

Molecular target: DnaX protein (Escherichia coli, UniProt P06710)
Settings: read-out: dissociation constant

Chain of DnaX protein (P06710 whole entry): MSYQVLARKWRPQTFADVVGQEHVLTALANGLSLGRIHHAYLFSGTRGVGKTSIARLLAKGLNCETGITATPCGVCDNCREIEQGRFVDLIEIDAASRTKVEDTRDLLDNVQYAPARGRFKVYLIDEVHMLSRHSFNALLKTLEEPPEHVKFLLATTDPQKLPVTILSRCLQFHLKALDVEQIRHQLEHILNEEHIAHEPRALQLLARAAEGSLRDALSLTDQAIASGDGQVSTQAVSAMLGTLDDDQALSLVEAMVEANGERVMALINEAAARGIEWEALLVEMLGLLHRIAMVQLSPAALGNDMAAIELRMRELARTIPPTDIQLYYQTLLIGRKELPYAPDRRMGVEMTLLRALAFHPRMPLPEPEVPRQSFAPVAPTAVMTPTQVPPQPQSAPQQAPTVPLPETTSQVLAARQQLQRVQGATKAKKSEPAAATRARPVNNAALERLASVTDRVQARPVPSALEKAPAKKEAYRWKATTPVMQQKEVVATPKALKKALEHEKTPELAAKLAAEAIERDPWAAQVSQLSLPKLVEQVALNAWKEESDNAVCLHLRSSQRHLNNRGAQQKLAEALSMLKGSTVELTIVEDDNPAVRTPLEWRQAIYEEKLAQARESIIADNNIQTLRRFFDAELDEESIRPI

Nc1ncnc2c1ncn2[C@@H]1O[C@H](COP(=O)(O)OP(=O)(O)OP(=O)(O)O)[C@@H](O)[C@H]1O [ATP]
pKd: ~5.70
